{"source": "patent US8697743B2", "about": "“Antioxidant camptothecin derivatives and antioxidant antineoplastic nanospheres thereof” (Cedars-Sinai Medical Center, priority 2008, dated 2014)", "origin": "cited, not measured here", "key": {"[1]": {"details": "30 minutes after administration"}}}
{"compound": "CC[C@@]1(O)C(=O)OCc2c1cc1n(c2=O)Cc2cc3ccccc3nc2-1", "note": "[camptothecin, (S)-4-ethyl-4-hydroxy-1H-pyrano-[3′,4′:6,7]indolizino[1,2-b]quinoline-3,14(4H,12H)-dione]", "values": [{"measurement": "solubility in water", "result": "essentially insoluble in water"}, {"measurement": "lactone form hydrolyzed to an open ring", "setting": "[1]", "result": 50, "unit": "%"}]}
